Laboratory results reported in patent US5945401A, “Peptide analogues of the 65KD isoform of human glutamic acid decarboxylase and uses thereof” (priority 1995, dated 1999).

Experiments:
[1] = test system: T cells from transgenic NOD mice expressing the human DQβ1*0302 gene; experiment: Proliferation of T cells from transgenic NOD mice expressing human DQβ1*0302; assay type: cell-based; details: T cells from DQβ1*0302 transgenic NOD mice
Excerpt: Type 1 diabetes is associated with the HLA DQβ1*0302 allele (Nepom and Erlich, Ann. Rev. Immunol. 9:493-525, 1991). Transgenic NOD mice expressing the human DQβ1*0302 gene were constructed. […] Thus, these peptides are recognized by T cells in the context of DQβ1*0302 and are additional peptides suitable for use in the present invention.

[2] = test system: T cells from Type 1 diabetic patients and healthy controls; experiment: T cell proliferation assay with GAD 65 peptides (epitope mapping in patients, controls, co-twins); assay type: cell-based, human; details: patients compared with controls
Protocol: FIG. 2 is a graph illustrating the T cell proliferative responses to peptides corresponding to various regions of GAD 65. Responses to peptides (5 μg/ml) in 5-7 Type 1 diabetic patients (solid bars) and 4-5 healthy controls (hatched bars) are expressed by the number of responders (y-axis). Background counts were normally between 600 and 3000 cpm, while positive wells had to exceed 1500 and 6000 cpm respective to background counts.
A major focus of research into autoimmunity is the identification of dominant epitopes on disease-associated auto-antigens recognized by autoreactive T cells. Immunodominant regions of the antigen GAD 65 have been identified in Type 1 diabetic patients (Lohmann et al., Lancet 343:1607-08, 1994; Atkinson et al., J Clin. Invest. 94:2125-2129, 1994). Within the subject invention, a detailed T cell epitope mapping of immunodominant regions in patients with Type 1 diabetes was performed. Two regions of GAD 65 were selected for decoding, representing the regions associated with the highest frequency of T cell responses in both Type 1 diabetics (amino acid residues 473-555 and 161-243) and control subjects (amino acid residues 161-243) (FIGS. 2 and 4). Nine diabetics who responded to region 473-555 were selected for further study of their response to 18 single peptides covering this region. […]

| Molecule | proliferation of T cells [1] | recognition by T cells of Type 1 diabetic patients versus controls [2] |
| --- | --- | --- |
| GAD 65 native protein: 65 kD isoform of human glutamic acid decarboxylase, native protein | stimulated to proliferate |  |
| region 161-243: region of GAD 65, residues 161-243, tested as overlapping peptides (peptide, UniProt Q05329 161-243, looked up, fragment, tested as overlapping peptides, region of GAD 65, residues 161-243, tested as overlapping peptides) MHCQTTLKYAIKTGHPRYFNQLSTGLDMVGLAADWLTSTANTNMFTYEIAPVFVLLEYVTLKKMREIIGWPGGSGDGIFSPGG |  | recognized by T cells from both normals and IDDM patients |
